Data as given in patent US20240228434A1, “PRODRUGS OF KV7 CHANNEL OPENERS” (Xyzagen, Inc., priority 2021, published 2024).

What was measured:
[1] = Pharmacokinetics of ezogabine prodrugs in mouse (SC, PO); settings: male mice, PO 20 mg/kg Cmpd 1 dosed
Method: (§1) Blood was diluted by 10% with these stabilizers.
(§2) Extraction of the molecules was conducted by taking a 50 uL aliquot of plasma and adding 200 uL of acetonitrile containing 200 ng/mL tolbutamide as the internal standard. Samples were precipitated in a 96 well plate, centrifuges and an aliquot transferred to a new plate, dried down under heat and nitrogen and then reconstituted in the initial mobile phase conditions of the LC-MS/MS method. […] A standard curve was prepared from 5000 ng/mL to 1 ng/mL for each analyte. Concentration data from the bioanalytical run was analyzed by Phoenix Winnonlin version 8 for noncompartmental sparse sampling PK analysis, plotting of concentration time curves and tabulation of PK parameters.
Animals were asphyxiated by carbon dioxide gas, blood was collected by cardiac stick and they were euthanized by cervical dislocation.

[2] = Acid and organic solution stability, HPLC-UV 250 nm; settings: for Appearance of the stability solution / Degradation / conversion to ezogabine in solution (summary) / Ezogabine Area: 5 mg/mL; for Degradation / conversion to ezogabine in solution (summary): up to 3 weeks
Method: An HPLC-UV Vis method was developed using 0.1% Formic acid in water as mobile phase A and 0.1% Formic acid in acetonitrile as mobile Phase B. A gradient method was developed ramping from 10% A to 90% B over 8 minutes and then returning to 10% A at 8.5 minutes on a 4.6×50 mm Zorbax C-18 column. Injections of 10 uL of stability solutions were injected for analyte detection.
[…] Aliquots were collected at serial time points and then diluted to a nominal concentration of 100 ug/mL for injection to the HPLC and 250 nm monitored by the diode array detector. Data at approximately 10 days is presented.
Aliquots were collected at serial time points and then diluted to a nominal concentration of 100 ug/mL for injection to the HPLC and 250 nm monitored by the diode array detector.
(§3) It was also evaluated at 2 N HCl at 37° C. Aliquots were collected at serial time points and then diluted to a nominal concentration of 100 ug/mL for injection to the HPLC and 250 nm monitored by the diode array detector.
as §3, §3, §3

[3] = patients receiving ezogabine (POTIGA); cited from earlier work
[4] = Pharmacokinetics of ezogabine prodrugs in rat (IV, IM, PO)
Method: as §1
as §2, with “noncompartmental” for “noncompartmental sparse sampling”
150 uL of blood were collected at predesignated time points. At completion of the study animals were asphyxiated by carbon dioxide gas and exsanguinated for euthanasia.

[5] = In vitro rat plasma stability at 37° C.; type: in vitro ADME; settings: 1000 ng/mL
Method: (§4) Plasma was collected by the biomaterial vendor and kept frozen at −20° C.
(§5) The samples were analyzed by HPLC separation and mass spectrometry detection for prodrug amount, relative to a baseline time 0 control sample. Triplicate samples were generated at each time point and the peak area response was averaged and converted to a percent of baseline control.

[6] = Solvent solubility assessment by visual inspection; type: physicochemical; settings: 0.1N Na2HPO4
Method: Compounds were weighed and placed into a 4 dram vials and solvents were added to the target concentration. Compounds were vortex and visually inspected for particulates and considered soluble if clear upon visual inspection with and without magnification. Solubility was reported as either greater than (>) or less than (<) from the prepared concentration. […] It was evaluated at 10 mg/mL in 0.1 N NaCl and was freely soluble. It was evaluate at 1 mg/mL in 0.1 N NaOH and 0.1 N Na2HPO4 and was freely soluble. In ethanol and methanol it was freely soluble at a concentration of 75 mg/mL. […] It was freely soluble at 75 mg/mL in methanol and ethanol. It was soluble at 1 mg/mL in 1N HCl.

[7] = tested on: mechanical hypersensitivity in the CCI model; assay: CCI model of neuropathic pain (pin prick, von Frey hairs); type: in vivo, Sprague Dawley rat; settings: 1 h after pretreatment
Method: Compound 3 was tested for reversal of mechanical hypersensitivity to the pin prick test for hindlimb paw withdraw and the von Frey hairs for gram force mechanical allodynia in the CCI model of neuropathic pain. Male Sprague Dawley rats (n=8/group) were tested for baseline sensitivity on Day 1 (ipsilateral and contralateral paws) and administered XYG-203 orally; 40 mg/kg on Day 1, 20 mg/kg Day 3, 10 mg/kg Day 5, 5 mg/kg Day 7, 1 mg/kg Day 10 and baseline on Day 12. Mechanical hypersensitivity was tested 1 h after pretreatment. Data (mean±SD) were analyzed with a repeated measures ANOVA with Dunnet's adjustment for multiple comparisons.

[8] = Rat PK at equimolar dose to Ezogabine (20 mg/kg) in 0.5% methylcellulose; settings: for AUClast/D / Cmax/D: male jugular vein cannulated rats, dose equimolar to Ezogabine 20 mg/kg, 0.5% methylcellulose in water, analyte the dosed prodrug; for AUClast/D: 24 hours
Method: (§6) Blood samples were collected at the same time points over 24 hours to generate a concentration time profile. Two male rats were dosed per group. Plasma samples were analyzed by LC/MS/MS and the resulting concentration time profiles and PK parameters are provided.
as §6, §6

[9] = Stability in solvents on the benchtop exposed to light, HPLC-UV 230 nm; type: physicochemical; settings: benchtop exposed to light
Method: Compounds in solvent were left on the benchtop exposed to light for up to 7 days since it is known that Compound 1 will degrade with light within 3-7 days.
Stability was assessed by taking an aliquot from the solubility vials at each test day. A single replicate was injected for each test condition.
Samples were injected onto an HPLC system with an aqueous mobile phase and acetonitrile organic phase and compounds were separated on a C8 50×2 mm column. Wavelength 230 nm was monitored for absorption and integrated for peak area while the mass spectrometer was used to confirm mass. Samples were tested on Day 1 and on subsequent days through Day 7.

[10] = In vitro mouse plasma stability at 37° C.; type: in vitro ADME; settings: 1000 ng/mL
Method: as §4, §5

CCOC(=O)Nc1ccc(NCc2ccc(F)cc2)cc1N [Compound 1, ezogabine]
Cmax/D ([1]; analyte Cmpd 1): 148 ng/mL/mg/kg
AUClast/D ([1]; analyte Cmpd 1, AUClast 6 h): 190 ng·h/mL/mg/kg
Appearance of the stability solution ([2]; acid solutions, room temperature): turning light purple (indicating degradation) by Day 2
Solubility ([2]; low pH): soluble
Behaviour at low pH ([2]; low pH (1 N HCl) and simulated gastric fluid): degrades and forms a chromophore dimer
Solubility ([2]; neutral pH): not soluble
Appearance of the stability solution ([2]; organic solvent solutions, room temperature): did not begin turning purple until Day 7
Adverse reaction: abnormal coordination [3]: 7%
Adverse reaction: aphasia [3]: 4%
Adverse reaction: asthenia [3]: 5%
Adverse reaction: balance disorder [3]: 4%
Adverse reaction: blurred vision [3]: 5%
Adverse reaction: confusional state [3]: 9%
Adverse reaction: diplopia [3]: 7%
Adverse reaction: disturbance in attention [3]: 6%
Adverse reaction: dizziness [3]: 23%
Adverse reaction: dysarthria [3]: 4%
Adverse reaction: fatigue [3]: 15%
Adverse reaction: gait disturbance [3]: 4%
Adverse reaction: memory impairment [3]: 6%
Adverse reaction: somnolence [3]: 22%
Adverse reaction: tremor [3]: 8%
Adverse reaction: vertigo [3]: 8%
AUClast/D ([4]; male Sprague Dawley rats, PO 20 mg/kg Cmpd 1 dosed, analyte Cmpd 1, AUClast […] h): 280 ng·h/mL/mg/kg

CCOC(=O)Nc1ccc(NCc2ccc(F)cc2)cc1NC(=O)OC(C)OC(=O)C(C)C (stereo not drawn) [Compound 3]
Time to full degradation in vitro [5]: ≤ 1 h
Appearance of the stability solution [2]: clear and colorless through Day 18
Degradation / conversion to ezogabine in solution (summary) [2]: converts to ezogabine under acidic conditions but does not in organic solvent
Ezogabine Area ([2]; 0.1N HCl, room temp., normal light, 433 h): 400 mAU
Ezogabine Area ([2]; 1N HCl, room temp., normal light, 97 h): 2881 mAU
Appearance of the stability solution ([2]; 9 days): turned a golden yellow by Day 9
Ezogabine Area ([2]; Acetonitrile, room temp., normal light, 435 h): 51 mAU
Ezogabine Area ([2]; Ethanol, room temp., normal light, 390 h): 43 mAU
Ezogabine Area ([2]; Methanol, room temp., normal light, 435 h): 41 mAU
Solubility [6]: <1000 µg/mL
Mechanical hypersensitivity versus baseline ([7]; oral 5 mg/kg): 95% confidence intervals did not cross the baseline mean
Gram force to paw lift (von Frey hairs) ([7]; oral 40 mg/kg): increased the gram force to paw lift significantly
Reduction of the latency of neuropathic ipsilateral paw withdrawal ([7]; oral 40 mg/kg, pin prick, p=0.0003): 9.2 s
AUClast/D [8]: 0.0136 ng·h/mL/mg/kg
Cmax/D [8]: 0.0273 ng/mL/mg/kg
Total exposure of ezogabine on a given molar dose relative to ezogabine ([8]; male, rat, in vivo): > 2 fold
Stability in solvent ([9]; 0.1N HCl): stable over 4 days
Stability in solvent ([9]; 1N HCl over 7 days): not stable
Stability in solvent ([9]; ethanol and methanol, degradation on Day 4): soluble and stable through 3 days
Time to full degradation in vitro [10]: ≤ 1 h
Exposure of the prodrug itself in systemic circulation ([4]; rat, in vivo, po): very little exposure

CCOC(=O)Nc1ccc(NCc2ccc(F)cc2)cc1NC(=O)[C@H](N)CO [Compound 6]
Degradation / conversion to ezogabine in solution (summary) [2]: very little degradation to ezogabine
Ezogabine Area ([2]; 1N HCl, room temp., normal light, 437 h): 58 mAU
Ezogabine Area ([2]; 2N HCl 37 C., 437 h): 461 mAU
Ezogabine Area ([2]; 2N HCl, room temp., normal light, 437 h): 177 mAU
Appearance of the stability solution ([2]; 18 days): remained clear and colorless through Day 18
Ezogabine Area ([2]; Methanol, room temp., normal light, 437 h): 184 mAU
AUClast/D [8]: 199 ng·h/mL/mg/kg
Cmax/D [8]: 233 ng/mL/mg/kg
Exposure of ezogabine (dose normalized AUC) compared with ezogabine itself ([8]; rats, equimolar dose to Ezogabine 20 mg/kg): similar
